What was measured:
cathepsin X [1] = target: T1, cathepsin X (Mus musculus, UniProt Q9WUU7); assay: Probe labeling of RAW264.7 cell lysates, SDS-PAGE in-gel fluorescence; format: biochemical; design: protein lysates prepared from RAW264.7 cells; host or cells: RAW264.7
Method: ells were harvested by scraping, washed once with PBS, and resuspended in lysis buffer containing 50 mM citrate [pH 5.5], 0.5% CHAPS, 0.1% Triton X-100, and 4 mM DTT. Cells were incubated on ice for at least 10 minutes with intermittent vortexing followed by centrifugation ([…] at 4° C. or 5 minutes). Cleared supernatants were then transferred to a fresh tube and protein concentration was determined by BCA. Total protein (50 µg) was aliquoted into tubes in a final volume of 20 µl lysis buffer. Where indicated, JPM-OEt or MDV-590 were added from a 100x DMSO stock and incubated at 37° C. or 20 minutes prior to probe addition. The indicated concentration of probe was added from a 100x DMSO stock. Labeling was carried out at 37° C. or 20 minutes (unless otherwise indicated), and the reactions were quenched by the addition of 5x sample buffer (200 mM Tris-Cl [pH 6.8], 8% SDS, 0.04% bromophenol blue, 5% b-mercaptoethanol, and 40% glycerol). Samples were then boiled for five minutes and proteins were resolved on a 15% SDS-PAGE gel. The gels were scanned on a Typhoon 5 flatbed laser scanner at 633/670 nm excitation/emission to detect sCy5 fluorescence.
robe-labeled lysate from above (in sample buffer) was divided into input or pulldown (~50 µg total protein each). The input sample was stored at -20° C. The pulldown sample was diluted in 500 µl IP buffer (PBS [pH 7.4],[…], 1 mM EDTA). Goat anti-cathepsin X antibody (10 µl) was added along with 40 µl slurry of pre-washed Protein A/G agarose beads. Samples were rotated overnight at 4° C. Beads were then washed four times with IP buffer followed by a final wash in 0.9% NaCl. Beads were then resuspended in 2x sample buffer and boiled. The pulldown supernatants, alongside the input samples, were analysed by fluorescent SDS-PAGE as above.
In Example 3, the sulfoxonium ylide probe sCy5-Val-SY was incubated with protein lysates prepared from RAW264.7 cells, an immortalized mouse macrophage line that contains high levels of active cysteine cathepsins (Verdoes et al., 2013). Cells were lysed in citrate buffer (pH 5.5) to provide optimal conditions for cathepsin activation, and the probe was added • at 1 µM for 20 minutes • at various concentrations (0 µM, 0.01 µM, 0.05 µM, 0.1 µM, 0.5 µM or 1 µM) for 20 minutes; or • at 1 µM for varying times (0, 1, 2, 5, 10, 20, and 30 minutes).
Then the lysates were resolved by SDS-PAGE and the gel scanned for sCy5 fluorescence using a flatbed laser scanner.
The labeling profile of sCy5-Val-SY was compared to that of BMV109, the pan-cathepsin probe, by repeating the above experiment using BMV109 as the probe added at 1 µM for 20 minutes.
In Example 6, a small library of sulfoxonium ylide probes with varying amino acids in the P1 position as prepared in accordance with Example 1 was tested in RAW264.7 lysates, and compared to BMV109. Each probe was added with increasing probe concentrations of 0.01 µM, 0.05 µM, 0.1 µM, 0.5 µM, 1 µM and 5 µM for 20 minutes).

cathepsin X [2] = target: cathepsin X (Homo sapiens, UniProt Q9UBR2); assay: Probe labeling of live MDA-MB-231 HM cells, in-gel fluorescence; format: cell-based; design: cathepsin X in a human breast cancer line known to express very low levels of cathepsin S; host or cells: MDA-MB-231 HM; conditions: 0.1-5 µM, overnight incubation
Method: AW cells or MDA-MB-231 ^HM cells were plated in 12-well plates. Where indicated, MDV-590 or vehicle was added at 10 µM from a 10 mM DMSO stock for overnight incubation. When the cell density reached 80%, the indicated probes were added at the indicated concentrations from a 1000x DMSO stock and allowed to incubate for the indicated time. Media was then removed and replaced with PBS. The cells were then scraped and transferred to tubes, and lysis and SDS-PAGE analysis were carried out as above, except skipping the probe addition step.
In Example 9, the specificity of the sulfoxonium ylide probes for cathepsin X in a human breast cancer line known to express very low levels of cathepsin S, MDA-MB-231 ^HM (Chang et al., 2007) was tested, and the results compared to BMV109. The MDA-MB-231 ^HM cells also allowed to test whether the sulfoxonium ylide probes could bind to human cathepsin X (in addition to mouse cathepsin X shown previously).
The sulfoxonium ylide probes (and BMV109) were each added with increasing probe concentrations of 0.1 µM, 0.5 µM, 1 µM and 5 µM).

cathepsin X [3] = target: T1, cathepsin X; assay: Probe labeling of kidney lysates, in-gel fluorescence; format: biochemical; conditions: 0.1-5 µM for 20 minutes
Method: (§1) issues were harvested from healthy mice and snap frozen. At the time of analysis, lysis buffer was added at 10x volume:weight, and tissues were sonicated on ice. Cleared lysates were labeled with the indicated probe and analyzed as above.
In Example 7, sulfoxonium ylide probes as prepared in accordance with Example 1 were tested in kidney lysates and the results compared to BMV109. The sulfoxonium ylide probes (and BMV109) were each added with increasing probe concentrations of 0.1 µM, 0.5 µM, 1 µM and 5 µM for 20 minutes.

cathepsin X [4] = target: T1, cathepsin X; assay: Probe labeling of living RAW264.7 cells, in-gel fluorescence; format: cell-based; design: protein lysates prepared from RAW264.7 cells; host or cells: RAW264.7; conditions: Example 8; 0.1-5 µM for 2 hours
Method: AW cells or MDA-MB-231 ^HM cells were plated in 12-well plates. Where indicated, MDV-590 or vehicle was added at 10 µM from a 10 mM DMSO stock for overnight incubation. When the cell density reached 80%, the indicated probes were added at the indicated concentrations from a 1000x DMSO stock and allowed to incubate for the indicated time. Media was then removed and replaced with PBS. The cells were then scraped and transferred to tubes, and lysis and SDS-PAGE analysis were carried out as above, except skipping the probe addition step. […]
In Example 8, sulfoxonium ylide probes as prepared in accordance with Example 1 were applied to live RAW264.7 cells for two hours, in order to examine the potency and permeability of the sulfoxonium ylide probe series in living cells, and the results compared to BMV109.
The sulfoxonium ylide probes (and BMV109) were each added with increasing probe concentrations of 0.1 µM, 0.5 µM, 1 µM and 5 µM for 2 hours. […]

cathepsin X [5] = target: T1, cathepsin X; assay: Probe labeling of mouse splenic lysates (wildtype or cathepsin X-deficient), in-gel fluorescence; format: biochemical; conditions: probe 1 µM for 20 minutes
Method: as §1
In Example 4, the ability of sCy5-Val-SY to label cathepsin X in mouse splenic lysates (from wildtype mice or cathepsin X-deficient mice) was tested (probe addition at 1 µM for 20 minutes).

cathepsin X [6] = target: T1, cathepsin X; assay: In vivo probe labeling in mice (intravenous), tissues analyzed by fluorescent SDS-PAGE; conditions: intravenous 50 nmol, two hours of circulation
Method: For in vivo labeled tissues, mice were first injected intravenously via the tail vein with sCy5-Nle-SY, BMV109, or sCy5-Nle-AOMK (50 nmol in 100 µl 10% DMSO/PBS or vehicle control). Tissues were harvested and analyzed as above except without further probe addition.
In Example 10, the probe sCy5-Nle-SY, vehicle control/no probe (NP) or BMV109 were injected into mice intravenously. After two hours of circulation, tissues were harvested, lysed, and analyzed for probe labeling by fluorescent SDS-PAGE.
In Example 12, the AOMK probe sCy5-Nle-AOMK was tested in vivo and its labeling in tissues was analyzed. The probe was injected into mice intravenously. After two hours of circulation, tissues were harvested, lysed, and analyzed for probe labeling by fluorescent SDS-PAGE.

cathepsin X [7] = target: T1, cathepsin X; assay: Inhibition in live RAW264.7 cells, residual activity by sCy5-Val-SY labeling; format: cell-based; design: protein lysates prepared from RAW264.7 cells; host or cells: RAW264.7; conditions: 100 µM overnight pre-treatment, compared to controls
Method: To test the ability of sulfoxonium ylide compounds to act as cathepsin inhibitors, an unlabeled, boc-protected version of Val-SY, i.e. tert-butyl (S)-(1-(dimethyl(oxo)-λ ^6-sulfanylidene)-4-methyl-2-oxopentan-3-yl)carbamate (SJM-724-24) was used. Live RAW264.7 cells were pre-treated with Boc-Val-SY (0, 10 or 100 µM) overnight. Residual cathepsin X activity was measured by incubating the live cells with sCy5-Val-SY for two hours. Cells were lysed and labeled proteins were detected by in-gel fluorescence.

cathepsin S = target: T2, cathepsin S (Mus musculus, UniProt O70370); assay: as above; format: cell-based; conditions: 100 µM overnight pre-treatment, compared to controls
T2 construct: Live RAW264.7 cells were pre-treated with Boc-Val-SY (0, 10 or 100 µM) overnight; host or cells: RAW264.7

[8] = Example 6, 0.01-5 µM for 20 minutes

T1 sequence (Q9WUU7 64-306): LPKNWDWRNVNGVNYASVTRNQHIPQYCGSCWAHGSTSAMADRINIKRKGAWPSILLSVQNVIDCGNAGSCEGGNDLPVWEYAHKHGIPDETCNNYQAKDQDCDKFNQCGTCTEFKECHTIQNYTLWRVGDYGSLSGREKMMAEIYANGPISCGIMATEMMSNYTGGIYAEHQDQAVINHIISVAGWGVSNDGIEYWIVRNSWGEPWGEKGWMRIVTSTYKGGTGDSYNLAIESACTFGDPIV
Chain of cathepsin X (Homo sapiens, UniProt Q9UBR2) (Q9UBR2 62-303): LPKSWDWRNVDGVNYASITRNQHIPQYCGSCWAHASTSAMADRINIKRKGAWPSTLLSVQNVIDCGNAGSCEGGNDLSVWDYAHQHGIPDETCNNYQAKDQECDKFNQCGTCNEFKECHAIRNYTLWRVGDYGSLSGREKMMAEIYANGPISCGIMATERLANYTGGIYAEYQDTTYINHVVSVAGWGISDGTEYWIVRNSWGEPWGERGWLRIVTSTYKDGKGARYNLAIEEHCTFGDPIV

Q: With `CC[N+]1=C(/C=C/C=C/C=C2/N(CCCCCC(=O)N[C@@H](Cc3ccccc3)C(=O)N[C@H](C(=O)C=S(C)(C)=O)C(C)C)c3ccc(S(=O)(=O)O)cc3C2(C)C)C(C)(C)c2cc(S(=O)(=O)[O-])ccc21` [sCy5-Phe-Val-SY] as the compound, how does the “potency of labeling in RAW264.7 lysates” value (cathepsin X [1]; [8]) read?
A: Its value is “improved potencies for cathepsin X and S compared to BMV109”.

Q: What about the “specificity of labeling in RAW264.7 lysates” value (cathepsin X [1]; [8]) of the same compound?
A: Its value is “loss of specificity”.

Q: What about the “cross-reactivity with cathepsin B and L in live MDA-MB-231 HM cells” value (cathepsin X [2]) of the same compound?
A: Its value is “the most cross-reactivity with cathepsin B and L”.

Q: And the “potency and specificity of labeling in kidney lysates” value (from here on “potency and specificity of labeling”) (cathepsin X [3])?
A: Its value is “broader reactivity”.

Q: And the “cathepsins labeled in live RAW264.7 cells” value (“cathepsins labeled” below) (cathepsin X [4])?
A: The value was “labeled cathepsin B and L in addition to cathepsin X and S”.

Q: How did the “competition for sCy5-Val-SY labeling by inhibitor pretreatment” value (cathepsin X [1]; RAW264.7 lysates pretreated with 10 µM inhibitor, then sCy5-Val-SY 1 µM 20 minutes) turn out when JPM-OEt [reference compound] was run?
A: Its value is “labeling was prevented”.

Q: How did the “cathepsins labeled” value (cathepsin X [4]) turn out when `CC[N+]1=C(/C=C/C=C/C=C2/N(CCCCCC(=O)N[C@@H](Cc3c[nH]c4ccccc34)C(=O)C=S(C)(C)=O)c3ccc(S(=O)(=O)O)cc3C2(C)C)C(C)(C)c2cc(S(=O)(=O)[O-])ccc21` [sCy5-Trp-SY] was run?
A: The value was “labeled cathepsin X and S to similar extents and with similar potency”.

Q: What does the source list for `CC[N+]1=C(/C=C/C=C/C=C2/N(CCCCCC(=O)N[C@@H](Cc3ccccc3)C(=O)C=S(C)(C)=O)c3ccc(S(=O)(=O)O)cc3C2(C)C)C(C)(C)c2cc(S(=O)(=O)[O-])ccc21` [sCy5-Phe-SY]?
A: potency and specificity of labeling in kidney lysates (cathepsin X [3]): broader reactivity; cathepsins labeled in live RAW264.7 cells (cathepsin X [4]): labeled cathepsin X and S to similar extents and with similar potency

Q: How did the “labeling in splenic lysates from wildtype mice” value (cathepsin X [5]) turn out when `CC[N+]1=C(/C=C/C=C/C=C2\N(CCCCCC(=O)NCCCC[C@H](NC(=O)[C@H](Cc3ccccc3)NC(=O)OCc3ccccc3)C(=O)COc3c(F)c(F)c(C(=O)NCCNC(=O)C4CCN(S(=O)(=O)c5ccccc5-c5c6ccc(N7CCc8cc(S(=O)(=O)[O-])ccc87)cc6[o+]c6cc(N7CCc8cc(S(=O)(=O)O)ccc87)ccc56)CC4)c(F)c3F)c3ccc(S(=O)(=O)O)cc3C2(C)C)C(C)(C)c2cc(S(=O)(=O)[O-])ccc21` [BMV109, reference compound] was run?
A: The value was “strongly labeled cathepsin B and to a lesser extent, cathepsin S and L”.

Q: What about the “labeling of cathepsin S, B and L in tissues after in vivo administration” value (cathepsin X [6]) of the same compound?
A: The value was “strongly labels cathepsin B and L”.

Q: Which “specificity of labeling in RAW264.7 lysates” value (cathepsin X [1]; [8]) does the source give for `CC[N+]1=C(/C=C/C=C/C=C2/N(CCCCCC(=O)NCCCC[C@H](NC(=O)OCc3ccccc3)C(=O)C=S(C)(C)=O)c3ccc(S(=O)(=O)O)cc3C2(C)C)C(C)(C)c2cc(S(=O)(=O)[O-])ccc21` [Cbz-Lys(sCy5)-SY] here?
A: Its value is “loss of specificity, favoring cathepsin S over X and B”.

Q: And the “cross-reactivity with cathepsin B and L in live MDA-MB-231 HM cells” value (cathepsin X [2])?
A: The value was “the most cross-reactivity with cathepsin B and L”.

Q: And the “potency and specificity of labeling” value (cathepsin X [3])?
A: The value was “broader reactivity”.

Q: What about the “cathepsins labeled” value (cathepsin X [4]) of the same compound?
A: Its value is “preference for cathepsin S”.

Q: `CC[N+]1=C(/C=C/C=C/C=C2/N(CCCCCC(=O)N[C@@H](CC(C)C)C(=O)C=S(C)(C)=O)c3ccc(S(=O)(=O)O)cc3C2(C)C)C(C)(C)c2cc(S(=O)(=O)[O-])ccc21` [sCy5-Leu-SY] was tested. Which “potency and specificity of labeling” value (cathepsin X [3]) did it give?
A: Its value is “the most potency and specificity for cathepsin X”.

Q: And the “cathepsins labeled” value (cathepsin X [4])?
A: Its value is “labeled cathepsin X and S to similar extents and with similar potency”.

Q: How did the “reduction in cathepsin X” value (cathepsin X [7]) turn out when `CC(C)[C@H](NC(=O)OC(C)(C)C)C(=O)C=S(C)(C)=O` [Boc-Val-SY, tert-butyl (S)-(1-(dimethyl(oxo)-λ^6-sulfanylidene)-4-methyl-2-oxopentan-3-yl)carbamate] was run?
A: The value was 71%.

Q: And the “reduction in cathepsin S” value (cathepsin S)?
A: The value was 51%.

Q: How did the “labeling of cathepsin S, B and L in tissues after in vivo administration” value (cathepsin X [6]) turn out when `CCCC[C@H](NC(=O)CCCCN1/C(=C/C=C/C=C/C2=[N+](CC)c3ccc(S(=O)(=O)[O-])cc3C2(C)C)C(C)(C)c2cc(S(=O)(=O)O)ccc21)C(=O)COC(=O)c1c(C)cccc1C` [sCy5-Nle-AOMK] was run?
A: Its value is “Only weak labeling of cathepsin B and S was observed in the colon, but not in other tissues examined”.

From patent US20230285598A1, “SULFOXONIUM YLIDE DERIVATIVES AS PROBES FOR CYSTEINE PROTEASE” (Takeda Pharmaceutical Company Limited, priority 2018, published 2023)
